Measurements reported in publication PMC7318538, “Bergenia pacumbis from Nepal, an astonishing enzymes inhibitor” (BMC Complementary Medicine and Therapies, 2020).
≈ marks a conversion by molar mass, not a printed value.

How the values were obtained:
[1] = DPPH radical scavenging assay; conditions: 30 min in the dark, absorbance 517 nm; mean ± SD, triplicates
Description: In-vitro antioxidant potential of the different extracts of B. pacumbis was assessed by 1,1-diphenyl 1–2-picryl-hydrazyl (DPPH) assay accordingly with Jha et al.. One milliliter of plant extract of different concentrations was added in 3 mL of the DPPH solution ([…]) and incubated for 30 min in the dark. Absorbance was measured at the wavelength (λ) = 517 nm in a UV-visible spectrophotometer (UV-1800, SHIMADZU). Gallic acid and methanolic DPPH were used as reference and positive control respectively.

[2] = ABTS radical scavenging assay; conditions: 10 min in the dark, absorbance 720 nm; mean ± SD, triplicates
Description: In-vitro 2, 2′-azino-bis (3-ethylbenzothiazoline-6-sulphonic acid) (ABTS) scavenging assay was performed as by Liyanaarachchi et al.. An aliquot of 1 mL of plant extract of varying concentrations was mixed with 3 mL of ABTS working solution and incubated for 10 min in the dark and the decrease in absorbance was recorded at λ = 720 nm in a UV-visible spectrophotometer. Gallic acid and 50% methanol were used as reference and positive control respectively.

## O=C(O)c1cc(O)c(O)c(O)c1 [Gallic Acid]
[1]
  IC50 Value DPPH: 5.12 ± 0.12 µg/mL (≈ 30.1 µM)
[2]
  IC50 Value ABTS: 1.96 ± 0.05 µg/mL (≈ 11.5 µM)
